Molecules are shown by their SMILES.

By Kd is commonly meant the free concentration of one partner at which half of the binding sites on the other are occupied at equilibrium, for simple one-to-one binding. The low end stands for higher affinity, the high end for lower affinity.

Experiment [1] deals with T1, sterol 14-demethylase (NfCYP51) (Naegleria fowleri, UniProt A0A2H4A2U9).
T1 construct: gene NF0102700; 34 N-terminal membrane anchoring residues replaced with MAKKTSSKGKL
T1 sequence (A0A2H4A2U9 12-460): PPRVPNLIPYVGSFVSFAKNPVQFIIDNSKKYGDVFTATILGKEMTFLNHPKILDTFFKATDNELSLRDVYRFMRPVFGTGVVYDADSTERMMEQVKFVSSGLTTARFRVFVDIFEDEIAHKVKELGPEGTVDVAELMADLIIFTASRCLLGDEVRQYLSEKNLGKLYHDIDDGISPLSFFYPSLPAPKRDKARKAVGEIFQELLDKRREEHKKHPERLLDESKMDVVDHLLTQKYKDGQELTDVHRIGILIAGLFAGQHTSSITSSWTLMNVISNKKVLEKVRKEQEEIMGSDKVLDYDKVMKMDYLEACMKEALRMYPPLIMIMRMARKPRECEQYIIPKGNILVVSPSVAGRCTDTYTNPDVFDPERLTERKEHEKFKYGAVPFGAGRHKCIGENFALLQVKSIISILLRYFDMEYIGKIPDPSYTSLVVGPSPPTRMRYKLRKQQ
Put plainly: co-crystal structure at […] Å; UV-vis type II titration. It counts as binding.

For experiment [2], the target named is T1, sterol 14-demethylase (NfCYP51). Put plainly: UV-vis spectral binding titration (type I difference spectrum).

Consider `OC(Cn1cncn1)(Cn1cncn1)c1ccc(F)cc1F` [Fluconazole], for which, in experiment [1], the “co-crystal structure at 2.70 Å; UV-vis type II titration” value was “fluconazole, binds NfCYP51 with affinity roughly an order of magnitude exceeding that of natural substrate, 31-norlanosterol”.

`CC(C)=CCC[C@@H](C)[C@H]1CC[C@@]2(C)C3=C(CC[C@]12C)[C@@]1(C)CC[C@H](O)[C@@H](C)[C@@H]1CC3` [compound 14, 31-Norlanosterol] registered a Kd in experiment [2] of 0.124 ± 0.025 µM.

The record behind these values is paper PMC5746216, “CYP51 is an essential drug target for the treatment of primary amoebic meningoencephalitis (PAM)” (PLoS Neglected Tropical Diseases, 2017).
